Values quoted from earlier work as cited in US20190161439A1, “MARINE SESSILE ORGANISM-REPELLING COMPOSITION” (BASSERU CHEMICAL CO., LTD., priority 2015, published 2019).

System: Barnacle
Conditions: reported values

SMILES | concentration corresponding to the 50% adhesion inhibition rate to Barnacle (EC50) [µg/mL]
CC(=O)O[C@H]1CC[C@](C)(C#N)CC1 [AF-034] | 0.0084
[C-]#[N+]C(C)(C)CCCCCCCCC=C [AF-035] | 0.03
